Target: Mycobacterium thermoresistible (Mtr) LpqY (Mycolicibacterium thermoresistibile, UniProt G7CES0)
Type: binding
Settings: single dose MST screen against LpqY

Mycobacterium thermoresistible (Mtr) LpqY, sequence (G7CES0 29-471): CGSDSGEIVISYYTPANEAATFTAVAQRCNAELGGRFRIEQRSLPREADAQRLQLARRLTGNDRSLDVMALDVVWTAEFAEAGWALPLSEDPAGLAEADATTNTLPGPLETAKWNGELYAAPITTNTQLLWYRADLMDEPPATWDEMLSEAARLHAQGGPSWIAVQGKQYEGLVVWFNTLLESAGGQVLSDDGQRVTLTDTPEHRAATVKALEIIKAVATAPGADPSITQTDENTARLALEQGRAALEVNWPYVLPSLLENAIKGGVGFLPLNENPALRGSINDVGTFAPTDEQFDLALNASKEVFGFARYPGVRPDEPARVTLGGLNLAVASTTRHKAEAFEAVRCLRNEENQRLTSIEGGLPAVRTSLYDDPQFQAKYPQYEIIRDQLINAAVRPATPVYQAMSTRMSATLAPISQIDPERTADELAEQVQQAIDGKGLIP

Row | Compound | Pathogen Box screen signal/noise ratio
1 | COc1cccc2c(C)nc(N=C(N)N)nc12 [MMV000907] | 1.1
2 | COc1cncc(-c2cncc(N3CCN(c4ccncc4)CC3)n2)c1 [MMV085071] | 1.2
3 | O=C(Cn1ccnc1[N+](=O)[O-])NCc1ccccc1 [MMV688773] | 2.9
4 | Cc1cc(C(=O)Nc2ccc(-c3ccccc3)cc2)no1 [MMV020152] | 0.742
5 | Cc1ccc(-c2nc(CN(Cc3ccccn3)C(C)C)cs2)o1 [MMV1088520] | 0.0
6 | NCC(=O)N1CCn2c(nc(-c3ccccc3)c2Nc2ccc3c(c2)OCO3)C1 [MMV011691] | 1.3
7 | Cc1ccc(S(=O)(=O)N2CCN(C(=O)c3cc(-c4ccccc4)[nH]n3)CC2)cc1 [MMV019742] | 0.286
8 | c1ccc(-c2nc(NC3CCCCC3)cc(C3CC3)n2)nc1 [MMV021013] | 0.0694
9 | Cc1ccc(-c2cc(C(=O)Nc3cccnc3)c3cc(Br)ccc3n2)cc1 [MMV016838] | 0.75
10 | O=C(NC1=NCCS1)c1sc2cc(F)ccc2c1Cl [MMV676584] | 1.1
11 | c1cc(C2=NCCN2)cc(-c2cc(-c3ccc(C4=NCCN4)cc3)no2)c1 [MMV688361] | 0.271
12 | Cc1ccc(NC(=O)CC2COc3ccccc3O2)cc1Cl (stereo not shown) [MMV676431] | 2.3
13 | C[C@@H]1[C@H](O)[C@@H](C)/C=C/C=C/C=C/C=C/C=C/C=C/C=C/[C@H](O[C@@H]2O[C@H](C)[C@@H](O)[C@H](N)[C@@H]2O)C[C@@H]2O[C@](O)(C[C@@H](O)C[C@@H](O)[C@H](O)CC[C@@H](O)C[C@@H](O)CC(=O)O[C@H]1C)C[C@H](O)[C@H]2C(=O)O [MMV689000] | 1.1
14 | CS(=O)(=O)c1cccc(-c2cnc3[nH]cc(-c4ccc(CCC(=O)O)cc4)c3c2)c1 [MMV026020] | 1.4
15 | O=C(C1CCN(c2nnnn2-c2ccccc2)CC1)N1CCc2ccccc2C1 [MMV009135] | 1.2
16 | Cc1nnc(NC(=O)c2cn(-c3ccccc3)nc2-c2ccccc2C)o1 [MMV020320] | 0.6
17 | CC1=NN(c2nc3ccccc3s2)C(=O)C1Cc1cccc2ccccc12 (stereo not shown) [MMV676558] | 3.8
18 | Cc1cccnc1NC(=O)c1cccc(OCc2c(C)noc2C)c1 [MMV688793] | 0.4
19 | CN(C(=O)c1cc2c(-c3cncnc3)cccc2[nH]1)c1ccccc1 [MMV024443] | -0.0357
20 | COc1cccc(-n2nnnc2S(C)(=O)=O)c1 [MMV272144] | 0.7
21 | O=C(Nc1ccc(N2CCNCC2)nc1)c1oc(-c2ccccc2)nc1C(F)(F)F [MMV024937] | 2.9
22 | Cc1ccc2c(c1C)NC(=O)C21NN=C(c2ccccc2)S1 (stereo not shown) [MMV019189] | 1.4
23 | CCOc1ccccc1C(=O)Nc1cccc(-c2nc3ncccn3c2C)c1 [MMV019790] | 1.6
24 | CC(c1cc(Cl)cc(Cl)c1)N(C)c1ncc2c(N)nc(N)nc2n1 (stereo not shown) [MMV689437] | 0.187

Row | Compound | Pathogen Box screen signal/noise ratio
25 | Cc1nc(-c2ccccn2)nc(N(C)CCc2ccccc2)c1Cl [MMV658988] | 2.9
26 | Nc1nccc2ccc(-c3ccc4nccn4c3)cc12 [MMV023233] | 0.9
27 | O=C(NC1CC1)c1ccc(N2CCOc3ccc(Cl)cc32)s1 [MMV020537] | 1.9
28 | CCC(Sc1nc2ccccc2o1)C(=O)Nc1nccs1 (stereo not shown) [MMV676383] | 0.8
29 | NCCN(C(=O)c1ccc(Cl)cc1Cl)c1ccc(OCc2ccc(Cl)cc2)cc1 [MMV688371] | 1.7
30 | Cc1nn(Cc2ccccc2)c(Cl)c1C(=O)NC1CCCCCC1 [MMV063404] | 2.2
31 | O=C(Nc1cccnc1)c1c(O)c2cccc3c2n(c1=O)CC3 [MMV676395] | 2.1
32 | O=C(COc1cccc(F)c1)Nc1nc(-c2ccccn2)cs1 [MMV676409] | 0.449
33 | N=C(N)c1ccc(-c2cc(-c3ccccc3)on2)cc1 [MMV688514] | 1.1
34 | N=C(N)Nc1ccc(-c2ccc(-c3ccc(N=C(N)N)c(Cl)c3)o2)cc1Cl [MMV688271] | 2.0
35 | Cc1cc2ccccc2n1CC(=O)N1CC(C(=O)N2CCCCC2)Oc2ccccc21 (stereo not shown) [MMV020520] | 2.0
36 | CO/C=C(/C(=O)OC)c1ccccc1Oc1cc(Oc2ccccc2C#N)ncn1 [MMV021057] | 0.6
37 | c1ccc(Oc2ccc(-c3cc(C4CCOCC4)[nH]n3)cc2)cc1 [MMV687762] | 0.6
38 | COc1cc(C(F)(F)F)nc2ccc(C)c(N)c12 [MMV047015] | 2.0
39 | CCOC(=O)c1c(NC(=O)c2c(F)c(F)c(F)c(F)c2F)sc(C(N)=O)c1C [MMV153413] | 1.3
40 | FC(F)(F)c1cc(NCCc2ccccc2)nc(-c2ccccn2)n1 [MMV659010] | 1.0
41 | O=C(Nc1nnc(-c2ccc(Cl)s2)o1)c1ccc(Cl)s1 [MMV676501] | 0.556
42 | CN(C)CCNC(=O)N1CCCN(c2ncnc3cc(-c4ccccc4)sc23)CC1 [MMV024195] | 0.217
43 | CC(=O)Nc1ccc(-c2noc(CC3CCCN(Cc4cccc(F)c4C)C3)n2)cc1 (stereo not shown) [MMV689061] | 0.9
44 | CC(=O)N(CCN(C(=O)c1ccc(F)cc1)c1ccccc1)c1ccccc1 [MMV676064] | 0.35
45 | CCN(CC)S(=O)(=O)c1ccc(C(=O)Nc2cc(C)nn2-c2nc(C)c(C)c(=O)[nH]2)cc1 [MMV595321] | 0.167
46 | C[C@H](C(N)=O)N1CCCC[C@H]1c1ccc(OCc2cccc(F)c2)cc1 [MMV676269] | 0.212
47 | O=C(NCc1cc(Cl)cc(Cl)c1)c1c(C(F)(F)F)nc2ccccn12 [MMV687699] | 0.8
48 | CC[C@@H]([C@H](C)O)n1ncn(-c2ccc(N3CCN(c4ccc(OC[C@@H]5CO[C@@](Cn6cncn6)(c6ccc(F)cc6F)C5)cc4)CC3)cc2)c1=O [MMV688774] | 3.4

Row | Compound | Pathogen Box screen signal/noise ratio
49 | Nc1ncnc2c1c(-c1cnc3ccccc3c1)nn2CC1CCNCC1 [MMV688411] | 2.1
50 | CC1CS(=O)(=O)CCN1/N=C/c1ccc([N+](=O)[O-])o1 (stereo not shown) [MMV001499] | 2.4
51 | c1coc(CNc2nc(N3CCCCC3)nc3ccccc23)c1 [MMV676401] | 1.9
52 | COc1ccc(C(=N)N)cc1-c1cn(-c2ccc(C(=N)N)cc2)nn1 [MMV675998] | 1.0
53 | Cc1nn(C)cc1C(C)Nc1nncc(-c2ccc(C(F)(F)F)cc2)n1 (stereo not shown) [MMV019993] | 0.25
54 | Cc1ccc2oc(-c3cc(NC(=O)Cc4ccccc4)ccc3Cl)nc2c1 [MMV676509] | 3.4
55 | COc1cc(-c2cc(-c3ccc(S(C)(=O)=O)cc3)cnc2N)ccc1O [MMV010576] | 3.1
56 | CO[C@@H]1CN(c2ccc(C#CC3(O)CN4CCC3CC4)c(Cc3ccccc3)n2)C[C@H]1O (stereo partly shown) [MMV688415] | 1.0
57 | NS(=O)(=O)c1cncc(-c2ccc3nccc(-c4cn[nH]c4)c3n2)c1 [MMV024101] | 0.429
58 | Cc1cc(NC(=O)c2ccc(S(=O)(=O)N(Cc3ccccc3)C(C)C)cc2)no1 [MMV007133] | 0.4
59 | CC(C)NCC(=O)Nc1cccc(C(=O)Nc2cccc(C(F)(F)F)c2)c1 [MMV020165] | 4.3
60 | Nc1ccc(C(=O)Nc2ccc(-c3nc4ccccc4o3)cc2)cc1 [MMV007920] | 0.9
61 | c1csc(-c2cnc3sc(NCC4CCOCC4)nn23)c1 [MMV010764] | 0.667
62 | COc1cccc(-c2cc3c(Nc4cccnc4)nccc3[nH]2)c1 [MMV392832] | 2.1
63 | O=C(NCc1ccoc1)N1CCN(Cc2ccc3c(c2)OCO3)CC1 [MMV688553] | 0.8
64 | Brc1c(-c2ccc3c(c2)OCO3)nc2ncccn12 [MMV676377] | 2.9
65 | CCc1ccc(S(=O)(=O)Nc2cc(CN3CCN(CCC(C)C)CC3)ccc2C)cc1 [MMV688124] | 0.85
66 | COc1ccc(-c2nn(C(C)C)c3ncnc(N)c23)cc1OC [MMV675993] | 0.75
67 | COc1cc(CN2CCC3(C=Cc4ccccc43)CC2)cc2c1OCO2 [MMV688941] | 0.5
68 | Cc1cnc(N2CCN[C@@H](Cc3ccccc3)C2)nc1Oc1ccc(-n2ccnc2)cc1 [MMV687765] | 2.2
69 | Cc1nn(C(=O)Nc2cccc(C(F)(F)F)c2)c(C)c1Sc1ncccn1 [MMV688552] | 0.8
70 | CN1CCN(c2cc(-c3ccc(F)cc3)nc(-c3ccncc3)n2)CC1 [MMV688888] | 2.6

Reference: paper PMC9579956 (RSC Medicinal Chemistry, 2022)
